Experimental findings from ChEMBL document CHEMBL1150683, “Two new carbazole alkaloids from Murraya koenigii” (J Nat Prod, 2003) are described below.

In the experiment the target is Cathepsin B (Homo sapiens, UniProt P07858). As to the kind of experiment: Inhibition of cathepsin B mediated osteoporotic activity.

The structures appear in SMILES notation. pIC50: −log10 of the molar value.

As a reminder, the pIC50 is the negative decadic logarithm of the IC50, by convention in mol/L. Low readings indicate a high IC50, high ones a low IC50. Regarding `COc1cc2c([nH]c3c4c(c(C)cc32)OC(C)(C)C=C4)c(-c2c(O)c(OC)cc3c2[nH]c2c4c(c(C)cc23)OC(C)(C)C=C4)c1O`, the negative-log IC50 (pIC50) was 5.68.
